Reference: patent publication US20150196568A1, “SYSTEM FOR USE BY COMPOUNDING PHARMACISTS TO PRODUCE HORMONE REPLACEMENT MEDICINE CUSTOMIZED FOR EACH CUSTOMER” (priority 2003, published 2015)

Test: ability of solvent combination to dissolve hormones
Type: physicochemical
Conditions: combination of ethoxy diglycol and propylene glycol in any ratio, compared with either solvent alone

With `C[C@]12CC[C@H]3[C@@H](CCC4=CC(=O)CC[C@@]43C)[C@@H]1CC[C@@H]2O` [testosterone] as the compound, how does the ability to dissolve read?
Its ability to dissolve is “better than using any of the solvents alone”.
